In publication PMC2990756, “Quantitative High-Throughput Screening Identifies 8-Hydroxyquinolines as Cell-Active Histone Demethylase Inhibitors” (PLoS ONE, 2010):
Read-outs that look alike come from different tables or passages of the source.

Legend:
JMJD2A [1] = molecular target: T1, JMJD2A (Homo sapiens, UniProt O75164); assay: Cellular demethylase assay: H3K9me3 immunofluorescence in HeLa cells overexpressing Flag-JMJD2A; details: 24 hr
T1 sequence (O75164 1-1064): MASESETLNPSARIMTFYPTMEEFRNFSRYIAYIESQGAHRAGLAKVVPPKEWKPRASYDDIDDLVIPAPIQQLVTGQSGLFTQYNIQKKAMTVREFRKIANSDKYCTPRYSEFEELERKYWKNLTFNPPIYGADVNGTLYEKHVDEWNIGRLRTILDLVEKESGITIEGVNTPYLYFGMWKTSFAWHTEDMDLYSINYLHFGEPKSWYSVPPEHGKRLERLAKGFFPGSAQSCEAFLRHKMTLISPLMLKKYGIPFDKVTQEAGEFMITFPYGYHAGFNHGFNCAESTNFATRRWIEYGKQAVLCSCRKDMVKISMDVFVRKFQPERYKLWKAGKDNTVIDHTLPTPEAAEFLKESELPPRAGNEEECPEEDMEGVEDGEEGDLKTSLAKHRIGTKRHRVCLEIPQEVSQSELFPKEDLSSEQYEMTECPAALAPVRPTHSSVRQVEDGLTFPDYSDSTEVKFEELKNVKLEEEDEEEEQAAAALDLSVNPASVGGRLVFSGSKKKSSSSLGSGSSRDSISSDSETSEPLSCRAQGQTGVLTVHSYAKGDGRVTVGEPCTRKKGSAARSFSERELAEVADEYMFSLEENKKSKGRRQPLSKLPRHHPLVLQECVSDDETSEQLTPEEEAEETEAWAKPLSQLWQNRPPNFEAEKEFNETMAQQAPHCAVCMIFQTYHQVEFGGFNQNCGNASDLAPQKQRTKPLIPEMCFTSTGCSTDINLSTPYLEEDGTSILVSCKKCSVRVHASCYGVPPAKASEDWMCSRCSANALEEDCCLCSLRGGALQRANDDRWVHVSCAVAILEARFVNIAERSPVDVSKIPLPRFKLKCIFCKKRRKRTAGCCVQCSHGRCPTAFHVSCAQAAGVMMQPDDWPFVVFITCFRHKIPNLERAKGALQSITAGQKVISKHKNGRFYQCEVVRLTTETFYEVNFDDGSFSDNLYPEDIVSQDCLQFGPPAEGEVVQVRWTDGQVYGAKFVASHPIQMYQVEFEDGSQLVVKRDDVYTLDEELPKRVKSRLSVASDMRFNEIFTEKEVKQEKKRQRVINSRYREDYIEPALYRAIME
Text: Therefore, in order to automate this process a series of images were collected for each treatment on a standard epifluorescence microscope ( Figure 5A ) and then submitted to CellProfiler Software for analysis [29]. CellProfiler was configured to analyze the images for DAPI signal, a DNA stain, enabling the program to identify the location of individual cells and create a boundary that delineates the volume of the nuclear compartment. As not all cells in a given field are transfected, the Flag-JMJD2A-expressing cells were identified by quantifying the immunofluoresence signal resulting from the Flag antibody staining and using the mock transfected cells as a baseline for the signal intensity of non-transfected cells. Once the transfected cells were identified, the nuclear H3K9me3 immunofluorescence signal for each cell was quantified by CellProfiler. The levels of H3K9me3 staining intensity were analyzed in the DMSO vehicle treated or inhibitor treated samples. As a control and a means of determining maximal possible inhibition of demethylase activity, cells expressing the JMJD2A H188A catalytically deficient mutant were also quantified in each experiment. […] For each treatment a minimum of 400 transfected cells was analyzed and the final values of inhibition were derived from inhibition experiments carried out on three separate days (biological triplicates). […]

JMJD2E (KDM4E) = molecular target: T2, JMJD2E (KDM4E) (Homo sapiens, UniProt B2RXH2); assay: qHTS fluorescence FDH-coupled JMJD2E demethylase assay; assay type: biochemical
T2 construct: The catalytic domain of human JMJD2E (residues 1–337); His6 (N); made in house; host or cells: E. coli
T2 sequence (B2RXH2 1-337): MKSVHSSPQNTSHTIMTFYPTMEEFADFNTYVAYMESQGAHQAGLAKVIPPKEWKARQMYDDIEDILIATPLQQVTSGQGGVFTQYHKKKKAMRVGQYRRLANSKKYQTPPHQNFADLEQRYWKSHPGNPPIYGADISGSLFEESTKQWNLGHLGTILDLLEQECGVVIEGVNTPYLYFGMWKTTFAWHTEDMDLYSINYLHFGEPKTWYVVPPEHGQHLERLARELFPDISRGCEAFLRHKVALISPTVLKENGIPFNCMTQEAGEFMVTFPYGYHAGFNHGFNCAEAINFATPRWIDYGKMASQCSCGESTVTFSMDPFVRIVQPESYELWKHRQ
Text: The oxidation of formaldehyde is coupled to the reduction of NAD^+ to NADH, which is monitored by fluorescence spectroscopy. […] To this end, initial screening hits were filtered by a combination of cheminformatics (to exclude low-confidence inhibitors and autofluorescent false positives), counterscreening against the coupled-assay component formaldehyde dehydrogenase (FDH), and orthogonal direct detection of inhibition of demethylation by mass spectrometry ( Figure 1 ).
Reactions were initiated with 1 µL addition of peptide substrate solution containing final concentrations of 10 µM FAS, 50 µM 2OG, 0.25 U/mL FDH, 0.25 mM NAD^+, and 50 µM peptide substrate (ARK(me3)STGGK). A ViewLux imager (PerkinElmer, Waltham, MA) was used to measure NADH fluorescence (λex 340 nm, λem 450 nm) immediately after substrate addition and following 30 min incubation at room temperature. To record any systematic drifts in assay behavior (signal window and noise), assay plates containing no library compounds but only DMSO as a vehicle control were tested periodically (every ∼60 plates) throughout the screen.
Data were normalized to the basal response (0% activity) in the absence of enzyme and the maximal response (100% activity) in the absence of compound. Using the Hill equation, dose-response curves and IC50 values were automatically generated for each compound tested with software developed internally (www.ncgc.nih.gov/pub/openhts/curvefit/). […] The initial well fluorescence (first kinetic read) associated with each sample was stored in a database and used in the cheminformatics analysis to identify autofluorescent compounds interfering with the assay signal.

JMJD2E [2] = molecular target: T3, JMJD2E (Homo sapiens, UniProt B2RXH2); assay: MALDI-TOF MS demethylation assay, JMJD2E; details: for MALDI-TOF Data: Span: span of the fitted curve
T3 sequence (B2RXH2 1-337): T2 sequence (B2RXH2 1-337)
Experimental: Initially, JMJD2, Fe(II), ascorbate and inhibitors were pre-incubated for 15 min prior to the addition of peptide and 2OG. The reaction was incubated for 30 min before 1∶1 quenching with methanol followed by addition of four volumes of 20 mM triammonium citrate. […] The diluted assay mixture (1 µL) from JMJD2 and PHD2 assays were mixed with 1 µL of α-cyano-4-hydroxycinnamic acid and 1 µL of FIH assay mixture was mixed with 1 µL of sinapinic acid matrix, and assessed by matrix-assisted laser desorption/ionization-time of flight (MALDI-TOF).

FIH = FIH (Homo sapiens, UniProt Q9NWT6); assay: MALDI-TOF MS peptide hydroxylation assay, FIH
Chain of FIH (Q9NWT6 whole entry): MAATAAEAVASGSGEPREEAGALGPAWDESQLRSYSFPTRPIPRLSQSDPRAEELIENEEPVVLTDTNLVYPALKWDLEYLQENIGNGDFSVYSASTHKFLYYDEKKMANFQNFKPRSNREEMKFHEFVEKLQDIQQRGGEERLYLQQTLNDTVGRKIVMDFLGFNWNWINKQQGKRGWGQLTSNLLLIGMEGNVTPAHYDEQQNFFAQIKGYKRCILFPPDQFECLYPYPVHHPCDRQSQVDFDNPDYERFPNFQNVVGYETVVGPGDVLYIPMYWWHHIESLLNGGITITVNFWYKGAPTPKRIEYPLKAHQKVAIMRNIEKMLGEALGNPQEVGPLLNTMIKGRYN
Experimental: (§1) JMJD2 assays were carried out as reported [13]. […] Initially, JMJD2, Fe(II), ascorbate and inhibitors were pre-incubated for 15 min prior to the addition of peptide and 2OG. The reaction was incubated for 30 min before 1∶1 quenching with methanol followed by addition of four volumes of 20 mM triammonium citrate. PHD2 and FIH assays were carried out as described [41], [42] with minor modifications. PHD2 assay consisted of PHD2 (1 µM), FAS (10 µM), SA (100 µM), 2OG (60 µM) and HIF-1α^556–574CODD peptide (50 µM), in 50 mM HEPES (pH 7.5) with varying concentrations of inhibitors (final DMSO concentration was 5%). Initially, PHD2, Fe(II), ascorbate and inhibitors were pre-incubated for 15 min prior to the addition of peptide and 2OG. The reaction was incubated for 30 min before 1∶1 quenching with 1% TFA followed by addition of three volumes of 20 mM triammonium citrate. FIH assay consisted of FIH (1 µM), FAS (10 µM), SA (100 µM), 2OG (100 µM) and HIF-1α^786–826CAD peptide (100 µM), in 50 mM HEPES (pH 7.5) with varying concentrations of inhibitors (final DMSO concentration was 5%). […] The diluted assay mixture (1 µL) from JMJD2 and PHD2 assays were mixed with 1 µL of α-cyano-4-hydroxycinnamic acid and 1 µL of FIH assay mixture was mixed with 1 µL of sinapinic acid matrix, and assessed by matrix-assisted laser desorption/ionization-time of flight (MALDI-TOF).

JMJD2A [3] = molecular target: T4, JMJD2A (Homo sapiens, UniProt O75164); assay: MALDI-TOF MS demethylation assay, JMJD2A
T4 sequence (O75164 1-359 limits assumed): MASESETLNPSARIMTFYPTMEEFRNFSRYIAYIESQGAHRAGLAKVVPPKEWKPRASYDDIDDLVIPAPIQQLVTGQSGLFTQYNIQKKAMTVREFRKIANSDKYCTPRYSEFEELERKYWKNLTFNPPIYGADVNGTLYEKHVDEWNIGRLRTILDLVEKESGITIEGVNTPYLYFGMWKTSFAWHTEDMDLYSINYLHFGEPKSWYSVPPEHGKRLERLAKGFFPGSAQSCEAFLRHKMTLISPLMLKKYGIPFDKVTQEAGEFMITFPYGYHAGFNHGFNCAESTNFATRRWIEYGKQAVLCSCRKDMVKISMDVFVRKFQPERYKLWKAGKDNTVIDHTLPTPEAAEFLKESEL
Experimental: as §1

PHD2 (catalytic domain) = PHD2 (catalytic domain) (Homo sapiens, UniProt Q9GZT9); assay: MALDI-TOF MS peptide hydroxylation assay, PHD2
Chain of PHD2 (catalytic domain) (Q9GZT9 181-426 limits assumed): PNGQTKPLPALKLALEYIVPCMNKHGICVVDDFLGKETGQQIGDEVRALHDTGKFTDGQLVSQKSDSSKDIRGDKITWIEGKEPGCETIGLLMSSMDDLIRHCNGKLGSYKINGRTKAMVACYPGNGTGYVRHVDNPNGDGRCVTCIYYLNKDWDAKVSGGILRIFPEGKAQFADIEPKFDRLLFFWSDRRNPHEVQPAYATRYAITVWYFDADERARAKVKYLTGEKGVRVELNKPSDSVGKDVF
Experimental: as §1

[4] = Cytotoxicity, resazurin/resorufin (CellTiter-Blue); assay type: cell-based; details: human, HeLa cells
Experimental: Cytotoxicity testing of the 5-carboxy-8HQ on HeLa cells was conducted with the resazurin/resorufin system for cellular metabolism.
Cytotoxicity testing was done with CellTiter-Blue (Promega) according to the manufacturer's directions.

[5] = molecular target: T5, formaldehyde dehydrogenase (FDH) (Pseudomonas putida, UniProt P46154); assay: FDH coupling enzyme counterscreen; assay type: biochemical; details: Table S1; FDH counterscreen
T5 construct: purchased Sigma-Aldrich
T5 sequence (P46154 whole entry): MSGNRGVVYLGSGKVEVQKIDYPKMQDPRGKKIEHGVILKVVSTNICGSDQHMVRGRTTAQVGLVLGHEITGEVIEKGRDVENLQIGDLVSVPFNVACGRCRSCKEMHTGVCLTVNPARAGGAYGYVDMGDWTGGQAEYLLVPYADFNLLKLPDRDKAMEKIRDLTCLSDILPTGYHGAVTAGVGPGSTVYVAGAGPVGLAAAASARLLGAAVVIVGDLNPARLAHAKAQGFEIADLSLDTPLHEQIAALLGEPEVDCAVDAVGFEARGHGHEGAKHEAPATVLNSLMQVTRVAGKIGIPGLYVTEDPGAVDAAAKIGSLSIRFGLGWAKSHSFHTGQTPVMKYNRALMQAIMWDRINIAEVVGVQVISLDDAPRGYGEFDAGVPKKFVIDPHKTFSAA
Text: Dimethylsulfoxide certified ACS grade (DMSO) was from Fisher, Inc. HEPES buffer was obtained from Gibco. […] Black solid-bottom 1,536-well assay plates were from Greiner Bio-One (Monroe, NC).

JMJD2E [6] = molecular target: T3, JMJD2E; assay: JMJD2E FDH-coupled assay under low and high iron conditions (iron chelation profile); assay type: biochemical; design: The catalytic domain of human JMJD2E (residues 1–337); His6 (N); made in house; host or cells: E. coli; details: Table S1, unit not in table, from Figure 2
Experimental: The prioritized compounds were also evaluated in the screening assay using two different ferrous ion concentrations (termed high iron and low iron, respectively), in order to assess their propensity for iron chelation.
The ratio of IC50 values under high iron to low iron was calculated for each compound.

[7] = Table S1, unit not in table, from Figure 2, read-out: qHTS Data: jmjd2e IC50
[8] = read-out: MALDI-TOF Data: IC50, Table S1, 2 µM JMJD2E, unit not in table, ~ values are poorly fitted
[9] = high iron, head says 20 µM FAS, read-out: qHTS Data: jmjd2e fas20um IC50
[10] = low iron 2.5 µM FAS, read-out: qHTS Data: jmjd2e fas2.5um IC50

## COC(=O)CNC(=O)C(=O)OC [DMOG, dimethyloxalylglycine]
JMJD2A [1]; 2.5mM treatment
  JMJD2A demethylase activity remaining: approximately 20%

## COC(=O)c1ccnc(C(=O)OC)c1 [dimethyl-2,4-PDCA]
JMJD2A [1]; 1mM treatment
  JMJD2A demethylase activity remaining: approximately 35%

## Oc1ccc(CNc2ccccc2F)c2cccnc12 [SID 852641]
JMJD2E (KDM4E); Figure 3, substituted 8-hydroxyquinolines against JMJD2E, read-out: IC50 /μM (qHTS IC50, FDH-coupled assay)
  IC50: 1.1 µM
JMJD2E [2]
  IC50: 6 µM
FIH
  IC50: 19.6 µM
JMJD2A [3]
  IC50: 8.2 µM
PHD2 (catalytic domain)
  IC50: 14.4 µM

## O=C(O)c1ccc(O)c2ncccc12 [SID 85736331, 5-carboxy-8-hydroxyquinoline]
FIH
  IC50: 20.5 µM
[4]
  IC50: 292 µM

## c1cnc2c(c1)ccc1cccnc12 [compound 11533040]
JMJD2E (KDM4E); [7]
  IC50: 0.25 µM
[5]
  qHTS Data: jmjd2e fdh CurveClass: Inactive
JMJD2E [2]; Table S1, 2 µM JMJD2E
  MALDI-TOF Data: Span: 93.01
JMJD2E [2]; [8]
  IC50: ~26.5 µM
JMJD2E [6]; [9]
  IC50: 3.98 µM
JMJD2E [6]; [10]
  IC50: 10 µM

## O=c1cc(-c2ccccc2)oc2cc(O)c(O)c(O)c12 [compound 11114203]
JMJD2E (KDM4E); [7]
  IC50: 0.89 µM
[5]
  qHTS Data: jmjd2e fdh CurveClass: Inactive
JMJD2E [2]; Table S1, 2 µM JMJD2E
  MALDI-TOF Data: Span: 89.05
JMJD2E [2]; [8]
  IC50: 5.8 µM
JMJD2E [6]; [9]
  IC50: 8.91 µM
JMJD2E [6]; [10]
  IC50: 2.24 µM
